{
  "source": "paper doi:10.1101/2025.11.20.689572v1",
  "about": "(biorxiv, 2025)",
  "key": {"[1]": {"biological_target": "T1, M5 (Homo sapiens, UniProt P08912)", "T1 construct": "gene CHRM5; full-length receptor; HEK293 with TRUPATH sensors (function)", "T1 sequence (P08912 1-532)": "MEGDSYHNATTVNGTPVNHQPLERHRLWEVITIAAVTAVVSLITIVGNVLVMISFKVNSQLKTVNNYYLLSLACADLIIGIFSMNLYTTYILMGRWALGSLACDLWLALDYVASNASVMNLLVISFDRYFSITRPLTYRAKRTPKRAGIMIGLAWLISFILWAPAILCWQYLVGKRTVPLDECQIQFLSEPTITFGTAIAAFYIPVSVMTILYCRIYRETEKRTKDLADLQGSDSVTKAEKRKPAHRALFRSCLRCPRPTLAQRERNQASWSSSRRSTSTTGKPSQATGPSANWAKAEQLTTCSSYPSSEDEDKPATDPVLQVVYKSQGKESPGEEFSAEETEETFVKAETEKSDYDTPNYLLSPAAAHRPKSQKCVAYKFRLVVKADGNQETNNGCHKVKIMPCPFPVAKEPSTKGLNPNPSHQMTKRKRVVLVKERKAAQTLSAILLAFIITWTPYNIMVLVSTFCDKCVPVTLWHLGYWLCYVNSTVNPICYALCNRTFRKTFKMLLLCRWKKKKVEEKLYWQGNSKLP", "test": "competitive radioligand binding, HEK293 membranes"}, "[2]": {"biological_target": "T2, D1 (Homo sapiens, UniProt P21728)", "T2 construct": "gene DRD1; full-length receptor; HEK293 cell membranes", "T2 sequence (P21728 whole entry)": "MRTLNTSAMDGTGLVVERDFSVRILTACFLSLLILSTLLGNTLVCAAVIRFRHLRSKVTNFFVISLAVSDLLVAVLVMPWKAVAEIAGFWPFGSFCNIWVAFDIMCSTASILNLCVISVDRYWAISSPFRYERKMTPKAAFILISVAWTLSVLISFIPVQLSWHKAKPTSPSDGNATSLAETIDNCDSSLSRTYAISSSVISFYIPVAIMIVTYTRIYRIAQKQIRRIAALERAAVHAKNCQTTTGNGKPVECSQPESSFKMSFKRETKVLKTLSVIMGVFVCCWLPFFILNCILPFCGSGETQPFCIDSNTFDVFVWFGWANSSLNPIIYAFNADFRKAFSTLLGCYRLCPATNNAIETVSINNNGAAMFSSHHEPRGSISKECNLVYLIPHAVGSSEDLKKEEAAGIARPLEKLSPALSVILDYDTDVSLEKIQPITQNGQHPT", "test": "competitive radioligand binding, HEK293 membranes", "excerpt": "competitive radioligand binding, HEK293 membranes on D1"}, "[3]": {"biological_target": "α1A (Homo sapiens, UniProt P35348)", "sequence (P35348 whole entry)": "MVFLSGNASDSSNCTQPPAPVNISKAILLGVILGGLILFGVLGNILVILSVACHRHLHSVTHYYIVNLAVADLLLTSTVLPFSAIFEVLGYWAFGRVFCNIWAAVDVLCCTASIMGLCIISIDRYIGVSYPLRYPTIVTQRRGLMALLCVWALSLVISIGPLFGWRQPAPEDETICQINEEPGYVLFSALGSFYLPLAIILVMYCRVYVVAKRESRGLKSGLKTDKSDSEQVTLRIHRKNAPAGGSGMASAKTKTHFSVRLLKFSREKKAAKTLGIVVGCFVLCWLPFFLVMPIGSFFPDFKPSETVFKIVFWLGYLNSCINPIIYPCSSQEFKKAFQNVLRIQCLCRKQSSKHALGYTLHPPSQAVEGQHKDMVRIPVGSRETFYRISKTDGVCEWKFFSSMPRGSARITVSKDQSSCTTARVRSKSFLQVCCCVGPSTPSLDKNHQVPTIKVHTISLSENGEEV", "test": "biochemical", "design": "gene ADRA1A; species or system HEK293; PDSP competitive radioligand binding, membranes of transfected HEK293 cells, filtration, Ki by Cheng-Prusoff", "procedure": "Competitive radioligand binding assays were performed at the NIMH Psychoactive Drug Screening Program (PDSP) using membranes from transiently transfected HEK293 cells in 96-well format as described. Complete, target-specific protocols are available at the PDSP website (https://pdsp.unc.edu/pdspweb/?site=assays). Primary screenings were run at a single test concentration (10 µM) in quadruplicate. […] Secondary assays were conducted in triplicate using 12-point serial dilutions (0, 0.1, 0.3, 1, 3, 10, 30, 100, 300 nM; 1, 3, 10 µM). Assays were performed in a final volume of 125 µL per well in binding buffer, as detailed in the NIMH PDSP protocols (e.g., standard binding buffer: 50 mM Tris-HCl, pH 7.4, 10 mM MgCl2, 0.1 mM EDTA). Radioligand concentrations were chosen near the target-specific Kd. […] After 90 min incubation at room temperature, reactions were terminated by vacuum filtration onto 0.3% polyethyleneimine-pretreated UniFilter-96 GF/C Microplates using a FilterMate harvester, washed three times with ice-cold buffer (50 mM Tris HCl, pH 7.4), dried, treated with MicroScint-O [compound left out] scintillation cocktails, and counted on a MicroBeta counter. Equilibrium inhibition constants (Ki) were calculated from fitted IC50 values using the Cheng–Prusoff equation [14] with the assay-specific radioligand concentration and Kd. […] ND=not determined."}},
  "data": [
    {"smiles": "CCCCCCOc1nsnc1C1=CCCNC1", "note": "[N-desmethylxanomeline]", "values": [
      {"measurement": "Ki", "setting": "[1]", "value": 93.3, "unit": "nM"}
    ]},
    {"smiles": "CCCCCCOc1nsnc1C1=CCCN(C)C1", "note": "[Xanomeline]", "values": [
      {"measurement": "Ki", "setting": "[2]", "value": 1580, "unit": "nM"},
      {"measurement": "Ki", "setting": "[3]", "value": "> 10000", "unit": "nM"}
    ]}
  ]
}
